Consider seven molecules from patent US6806249B2, “Perfume containing surfactant compositions having perfume burst when diluted” (Unilever Home & Personal Care USA, a division of Conopco, priority 2002, dated 2004).

Like-named read-outs stand apart in the source and are kept apart here. Marks after values point to notes of the source that are not given here.

Data set [1] can be described thus: Dilution behaviour of components of a twelve-component perfume mixture in 5 wt. % sodium laurate, normalized GC headspace (FIG. 9). The data set is classed as physicochemical. The conditions noted are these: component of perfume mixture in 5 wt. % sodium laurate. The method, then: A typical fully formulated perfume used in a commercial product, e.g., personal wash formulation, usually is a multi-component composition in which the properties of each perfume component can vary dramatically. A typical perfume mixture in a 5 wt. % sodium laurate formulation was tested for its “perfume burst” behaviour upon dilution. The PBI values of the components in this perfume mixture vary from a large negative number (e.g., benzyl acetate, PBI=−819; PEA, PBI=−200 in sodium laurate solution) to a large positive number (e.g., gamma-methyl-ionone, PBI=1,677 in sodium laurate solution). The dilution behaviour of each component in this perfume mixture is shown in FIG. 9 (the graph represents a normalized GC measurement so the amount of burst of each molecule is clearly indicated). In this perfume mixture of twelve components, the dilution behaviour of each component is different. Each component has a unique dilution curve (GC headspace vs. dilution factor) governed by the factors (hydrophobicity, volatility, etc) discussed previously. […] For those perfumes with a moderate positive PBI (e.g., limonene, PBI=12; p-cymene=12.2 in sodium laurate solution), the perfume headspaces increases 1-2 times upon dilution.

A short description of data set [2]: Critical micellization concentration (CMC) of surfactants. It is filed as physicochemical. Conditions: no reference given. The text has this:
As noted, the perfume burst is affected not only by the perfume properties, but also by properties of the formulation in which the perfume is found. Thus, the number and type of surfactant micelles found in a surfactant solution also has an effect. […] The critical micellization concentration is defined as the surfactant concentration at which micelles begin to form from unassociated surfactant monomers (M. J. Rosen, Surfactants and Interfacial Phenomena, 2nd Ed., 1989). Conversely, in a surfactant with low critical micelle concentration (e.g., one where micelles do form easily or, stated differently, don't break apart as readily once formed), a perfume, being generally more hydrophobic, tends to stay in the surfactant more readily. As a result, the perfume will tend not to “burst” (increase perfume headspace) as readily and, to achieve more headspace, more dilution may be required. The CMC of the surfactant system also affects “perfume burst”. Thus, for example, a surfactant system of relatively low CMC (e.g., sodium lauryl ether sulfate, also known as SLES) lowers the PBI and can greatly reduce the expected “perfume burst” on dilution. By contrast, surfactant systems of relatively higher CMC (e.g., sodium laurate compared to SLES) would raise PBI and can thus increase “perfume burst” on dilution.

Data set [3] in a line: Fragrance burst in shower liquids with different sodium laurate concentrations (FIG. 6). The data set is classed as physicochemical. The conditions noted are these: 5% sodium laurate product compared with 10, 15 (and 20) wt.%. The procedure: Limonene (PBI=12.2) was tested in shower liquids containing sodium laurate at 5, 10, 15 and 20 wt.%, γ-Methyl lonone and menthone were tested in sodium laurate at 5, 10 and 15 wt.% (FIG. 6).

Data set [4] is described as follows: Fragrance burst in shower liquids with surfactants of different CMC (FIG. 8). The data set is classed as physicochemical. The conditions noted are these: 5% sodium laureth sulfate (CMC=0.0011 wt/wt) compared with 5% sodium laurate (CMC=0.005 wt/wt). The method, then:
Limonene and γ-Methyl lonone were tested in two different shower liquid samples. One product was formulated with 5% sodium laurate (CMC=0.005 wt/wt) and the second with 5% sodium laureth sulfate (CMC=0.0011 wt/wt) (FIG. 8).

The conditions of data set [5]: 50° C.; cited from earlier work.

For the molecule `CC(=O)OCc1ccccc1` [Benzyl Acetate], the “perfume headspace behaviour upon dilution” value in data set [1] is “decrease upon dilution”.
The molecule `CCCCCCCC(=O)NCCC[N+](C)(C)CC(=O)[O-]` [Caprylamidopropyl betaine] showed a CMC in data set [2] of 0.00032 wt./wt.
Take `C=C(C)[C@H]1CC=C(C)CC1` [Limonene]: the “dilutions needed to reach maximum fragrance burst” value (“dilutions needed” below) in data set [3] is given as “reached with fewer dilutions in the 5% soap product”. Besides, the overall fragrance burst result in data set [4] was “lower overall fragrance burst”.
As for `CC(C)[C@@H]1CC[C@@H](C)CC1=O` [Menthone], in data set [3], the “dilutions needed” value is given as “reached with fewer dilutions in the 5% soap product”.
`CC(=O)/C(C)=C/C1C(C)=CCCC1(C)C` (stereo not shown) [γ-methyl ionone]: the “dilutions needed” value in data set [3] is listed as “reached with fewer dilutions in the 5% soap product”. Moreover, the overall fragrance burst result in data set [4] was “lower overall fragrance burst”. Also, the “perfume headspace behaviour upon dilution” value in data set [1] is “as high as seven times”.
Sodium laureth sulfonate (2EO): the CMC in data set [5] was 0.0011*** wt./wt.
Consider Sodium laureth sulfonate (3EO), for which, in data set [5], the CMC is reported as 0.00084*** wt./wt.
